Reference: patent US9650395B2, “Antibacterial compounds and methods for use” (PTC Therapeutics, Inc., priority 2011, dated 2017)
≈ marks a conversion by molar mass, not a printed value. Structures can show the parent of a compound that is named as a salt. Where two headings read alike, the source gives them in different places.

Columns and labels:
[1] = system: super sensitive Gram-negative Escherichia coli (E. coli) BAS849; assay: Antibacterial activity, microbroth dilution MIC, E. coli BAS849; assay type: cell-based; settings: Escherichia coli, read-out: MIC, BAS849
[2] = system: control Gram-negative E. coli 25922 strain; assay: Antibacterial activity, microbroth dilution MIC, E. coli 25922; assay type: cell-based, Escherichia coli; settings: Escherichia coli; E. coli 25922, microbroth dilution; read-out: MIC, 25922
[3] = system: Gram-positive Staphylococcus aureus (S. aureus) 29213; assay: Antibacterial activity, microbroth dilution MIC, S. aureus 29213; assay type: cell-based; settings: Staphylococcus aureus; S. aureus 29213, microbroth dilution; read-out: MIC, 29213
[4] = system: quinolone resistant E. coli LZ3111; assay: Antibacterial activity, MIC, quinolone resistant E. coli LZ3111; assay type: cell-based, Escherichia coli; settings: Escherichia coli, read-out: MIC, LZ3111
Text: The antibacterial activity from a microbroth dilution method may be presented as the minimum inhibitory concentration (MIC in […]). The MIC value is the lowest concentration of a drug which prevents macroscopically visible bacterial growth under test conditions.
Mutations in these regions are known to confer a high level resistance to the quinolone class of antibiotics.

[5] = E. coli BAS849, microbroth dilution

Row | SMILES | MIC [1] [µg/mL] | MIC [2] [µg/mL] | MIC [3] [µg/mL] | MIC [4] [µg/mL] | MIC [1, 5] [µg/mL]
1 | CCc1cc(C(=O)O)c(=O)[nH]c1-c1ccc(N2C[C@H]3C[C@@H](NC)C[C@H]3C2)cc1 [Cpd 215, 5-ethyl-6-{4-[(3aR,5r,6aS)-5-(methylamino)hexahydrocyclopenta[c]pyrrol-2(1H)-yl]phenyl}-2-oxo-1,2-dihydropyridine-3-carboxylic acid trifluoroacetate] | 1 to 3.5 | 3.5 to 12.5 | 12.5 to 150 | 12.5 to 150 | –
2 | CCc1cc(C(=O)O)c(=O)[nH]c1-c1ccc(N2CCC(C3(N)CCC3)C2)cc1.O=C(O)C(F)(F)F (stereo not shown) [Cpd 218, 6-{4-[3-(1-aminocyclobutyl)pyrrolidin-1-yl]phenyl}-5-ethyl-2-oxo-1,2-dihydropyridine-3-carboxylic acid trifluoroacetate] | 1 to 3.5 | 3.5 to 12.5 | 12.5 to 150 | 12.5 to 150 | –
3 | CCc1cc(C(=O)O)c(=O)[nH]c1-c1ccc(N2C[C@@H]3CCC[C@]3(C(=O)O)C2)cc1.O=C(O)C(F)(F)F [Cpd 220, (3aR,6aR)-2-[4-(5-carboxy-3-ethyl-6-oxo-1,6-dihydropyridin-2-yl)phenyl]hexahydrocyclopenta[c]pyrrole-3a(1H)-carboxylic acid trifluoroacetate] | 3.5 to 12.5 | 12.5 to 150 | 12.5 to 150 | 12.5 to 150 | –
4 | CCc1cc(C(=O)O)c(=O)[nH]c1-c1ccc(N2CCC(N(C)C)C2)cc1F (stereo not shown) [Cpd 221, 6-{4-[3-(dimethylamino)pyrrolidin-1-yl]-2-fluorophenyl}-5-ethyl-2-oxo-1,2-dihydropyridine-3-carboxylic acid] | – | 3.5 to 12.5 (≈ 9.37 to 33.5 µM) | 12.5 to 150 (≈ 33.5 to 402 µM) | 12.5 to 150 (≈ 33.5 to 402 µM) | 1 to 3.5 (≈ 2.68 to 9.37 µM)
5 | CCc1cc(C(=O)O)c(=O)[nH]c1-c1ccc(N2CCC(O)CC2)cc1 [Cpd 222, 5-ethyl-6-[4-(4-hydroxypiperidin-1-yl)phenyl]-2-oxo-1,2-dihydropyridine-3-carboxylic acid] | – | 12.5 to 150 (≈ 36.5 to 438 µM) | 12.5 to 150 (≈ 36.5 to 438 µM) | 12.5 to 150 (≈ 36.5 to 438 µM) | 1 to 3.5 (≈ 2.92 to 10.2 µM)
6 | CCc1cc(C(=O)O)c(=O)[nH]c1-c1ccc(N2CCC(N(C)C)CC2)cc1 [Cpd 223, 6-{4-[4-(dimethylamino)piperidin-1-yl]phenyl}-5-ethyl-2-oxo-1,2-dihydropyridine-3-carboxylic acid] | – | 12.5 to 150 (≈ 33.8 to 406 µM) | 12.5 to 150 (≈ 33.8 to 406 µM) | 12.5 to 150 (≈ 33.8 to 406 µM) | 12.5 to 150 (≈ 33.8 to 406 µM)
7 | CCc1cc(C(=O)O)c(=O)[nH]c1-c1ccc(N2CCC(OC)CC2)cc1 [Cpd 224, 5-ethyl-6-[4-(4-methoxypiperidin-1-yl)phenyl]-2-oxo-1,2-dihydropyridine-3-carboxylic acid] | – | 12.5 to 150 (≈ 35.1 to 421 µM) | 12.5 to 150 (≈ 35.1 to 421 µM) | 12.5 to 150 (≈ 35.1 to 421 µM) | < 1
8 | CCc1cc(C(=O)O)c(=O)[nH]c1-c1ccc(N2CCC(N)CC2)cc1 [Cpd 228, 6-[4-(4-aminopiperidin-1-yl)phenyl]-5-ethyl-2-oxo-1,2-dihydropyridine-3-carboxylic acid] | – | 12.5 to 150 (≈ 36.6 to 439 µM) | 12.5 to 150 (≈ 36.6 to 439 µM) | 12.5 to 150 (≈ 36.6 to 439 µM) | 12.5 to 150 (≈ 36.6 to 439 µM)
9 | CCc1cc(C(=O)O)c(=O)[nH]c1-c1ccc(N2CCC(n3ccnn3)C2)cc1 (stereo not shown) [Cpd 230, 5-ethyl-2-oxo-6-{4-[3-(1H-1,2,3-triazol-1-yl)pyrrolidin-1-yl]phenyl}-1,2-dihydropyridine-3-carboxylic acid] | – | 1 to 3.5 (≈ 2.64 to 9.22 µM) | 3.5 to 12.5 (≈ 9.22 to 32.9 µM) | 12.5 to 150 (≈ 32.9 to 395 µM) | < 1
10 | CCc1cc(C(=O)O)c(=O)[nH]c1-c1ccc(N2CCC(C)(O)C2)cc1 (stereo not shown) [Cpd 233, 5-ethyl-6-[4-(3-hydroxy-3-methylpyrrolidin-1-yl)phenyl]-2-oxo-1,2-dihydropyridine-3-carboxylic acid] | – | 3.5 to 12.5 (≈ 10.2 to 36.5 µM) | 12.5 to 150 (≈ 36.5 to 438 µM) | 12.5 to 150 (≈ 36.5 to 438 µM) | < 1
11 | CCc1cc(C(=O)O)c(=O)[nH]c1-c1ccc(N2CCC(CNCc3ccccc3Cl)C2)cc1 (stereo not shown) [Cpd 234, 6-[4-(3-{[(2-chlorobenzyl)amino]methyl}pyrrolidin-1-yl)phenyl]-5-ethyl-2-oxo-1,2-dihydropyridine-3-carboxylic acid] | – | 1 to 3.5 (≈ 2.15 to 7.51 µM) | 12.5 to 150 (≈ 26.8 to 322 µM) | 12.5 to 150 (≈ 26.8 to 322 µM) | < 1
12 | CCc1cc(C(=O)O)c(=O)[nH]c1-c1ccc(N2CCC(C)(CN)C2)cc1 (stereo not shown) [Cpd 235, 6-{4-[3-(aminomethyl)-3-methylpyrrolidin-1-yl]phenyl}-5-ethyl-2-oxo-1,2-dihydropyridine-3-carboxylic acid] | – | 12.5 to 150 (≈ 35.2 to 422 µM) | 12.5 to 150 (≈ 35.2 to 422 µM) | 12.5 to 150 (≈ 35.2 to 422 µM) | 1 to 3.5 (≈ 2.81 to 9.85 µM)
13 | CCc1cc(C(=O)O)c(=O)[nH]c1-c1ccc(N2CCC(CNCc3cccc(Cl)c3)C2)cc1 (stereo not shown) [Cpd 236, 6-[4-(3-{[(3-chlorobenzyl)amino]methyl}pyrrolidin-1-yl)phenyl]-5-ethyl-2-oxo-1,2-dihydropyridine-3-carboxylic acid] | – | 1 to 3.5 (≈ 2.15 to 7.51 µM) | 3.5 to 12.5 (≈ 7.51 to 26.8 µM) | 12.5 to 150 (≈ 26.8 to 322 µM) | < 1
14 | CCc1cc(C(=O)O)c(=O)[nH]c1-c1ccc(N2CCC(CNCc3ccc(Cl)cc3)C2)cc1 (stereo not shown) [Cpd 237, 6-[4-(3-{[(4-chlorobenzyl)amino]methyl}pyrrolidin-1-yl)phenyl]-5-ethyl-2-oxo-1,2-dihydropyridine-3-carboxylic acid] | – | < 1 | 3.5 to 12.5 (≈ 7.51 to 26.8 µM) | 12.5 to 150 (≈ 26.8 to 322 µM) | < 1
15 | CCc1cc(C(=O)O)c(=O)[nH]c1-c1ccc(N2CCC(CNCc3cccc(F)c3)C2)cc1 (stereo not shown) [Cpd 238, 5-ethyl-6-[4-(3-{[(3-fluorobenzyl)amino]methyl}pyrrolidin-1-yl)phenyl]-2-oxo-1,2-dihydropyridine-3-carboxylic acid] | – | 1 to 3.5 (≈ 2.22 to 7.79 µM) | 12.5 to 150 (≈ 27.8 to 334 µM) | 12.5 to 150 (≈ 27.8 to 334 µM) | < 1
16 | CCc1cc(C(=O)O)c(=O)[nH]c1-c1ccc(N2CCC(CNCc3ccc(F)cc3)C2)cc1 (stereo not shown) [Cpd 239, 5-ethyl-6-[4-(3-{[(4-fluorobenzyl)amino]methyl}pyrrolidin-1-yl)phenyl]-2-oxo-1,2-dihydropyridine-3-carboxylic acid] | – | < 1 | 12.5 to 150 (≈ 27.8 to 334 µM) | 12.5 to 150 (≈ 27.8 to 334 µM) | < 1
17 | CCc1cc(C(=O)O)c(=O)[nH]c1-c1ccc(N2CCC(CNCc3ccccc3F)C2)cc1 (stereo not shown) [Cpd 240, 5-ethyl-6-[4-(3-{[(2-fluorobenzyl)amino]methyl}pyrrolidin-1-yl)phenyl]-2-oxo-1,2-dihydropyridine-3-carboxylic acid] | – | 1 to 3.5 (≈ 2.22 to 7.79 µM) | 12.5 to 150 (≈ 27.8 to 334 µM) | 12.5 to 150 (≈ 27.8 to 334 µM) | < 1
18 | CCc1cc(C(=O)O)c(=O)[nH]c1-c1ccc(N2CCC(CNCc3cccnc3)C2)cc1 (stereo not shown) [Cpd 241, 5-ethyl-2-oxo-6-[4-(3-{[(pyridin-3-ylmethyl)amino]methyl}pyrrolidin-1-yl)phenyl]-1,2-dihydropyridine-3-carboxylic acid] | – | < 1 | 12.5 to 150 (≈ 28.9 to 347 µM) | 12.5 to 150 (≈ 28.9 to 347 µM) | < 1
19 | CCc1cc(C(=O)O)c(=O)[nH]c1-c1ccc(N2CCC(CNCc3ccncc3)C2)cc1 (stereo not shown) [Cpd 242, 5-ethyl-2-oxo-6-[4-(3-{[(pyridin-4-ylmethyl)amino]methyl}pyrrolidin-1-yl)phenyl]-1,2-dihydropyridine-3-carboxylic acid] | – | 1 to 3.5 (≈ 2.31 to 8.09 µM) | 12.5 to 150 (≈ 28.9 to 347 µM) | 12.5 to 150 (≈ 28.9 to 347 µM) | < 1
20 | CCc1cc(C(=O)O)c(=O)[nH]c1-c1ccc(N2CCC(CNCc3ccccn3)C2)cc1 (stereo not shown) [Cpd 243, 5-ethyl-2-oxo-6-[4-(3-{[(pyridin-2-ylmethyl)amino]methyl}pyrrolidin-1-yl)phenyl]-1,2-dihydropyridine-3-carboxylic acid] | – | 1 to 3.5 (≈ 2.31 to 8.09 µM) | 12.5 to 150 (≈ 28.9 to 347 µM) | 12.5 to 150 (≈ 28.9 to 347 µM) | < 1
21 | CCc1cc(C(=O)O)c(=O)[nH]c1-c1ccc(N2C[C@H]3CC[C@H](N=[N+]=[N-])[C@H]3C2)cc1.O=C(O)C(F)(F)F [Cpd 245, 6-{4-[(3aR,4S,6aS)-4-azidohexahydrocyclopenta[c]pyrrol-2(1H)-yl]phenyl}-5-ethyl-2-oxo-1,2-dihydropyridine-3-carboxylic acid trifluoroacetate] | < 1 | 3.5 to 12.5 | 3.5 to 12.5 | 12.5 to 150 | –
22 | CCc1c(-c2ccc(N3C[C@H]4C[C@@H](N)C[C@H]4C3)cc2)[nH]c(=O)c(C(=O)O)c1O [Cpd 248, 6-{4-[(3aR,5r,6aS)-5-aminohexahydrocyclopenta[c]pyrrol-2(1H)-yl]phenyl}-5-ethyl-4-hydroxy-2-oxo-1,2-dihydropyridine-3-carboxylic acid] | – | 12.5 to 150 (≈ 32.6 to 391 µM) | 12.5 to 150 (≈ 32.6 to 391 µM) | 12.5 to 150 (≈ 32.6 to 391 µM) | 1 to 3.5 (≈ 2.61 to 9.13 µM)
